Values joined by “and” are separate entries in the source; they are usually repeats but may differ in a detail not shown here. Identical values can stand only once.
Test system: 636577-100-R-J1-PDC complex spheroid viability
Assay: Anticancer human tumor 636577-100-R-J1-PDC patient-derived endometrial adenocarcinoma cell line growth inhibition [GQUAD]
Details: for viability, T/C: stronger effect = lower value
Procedure, shortened: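 Tumor cells were grown as complex spheroids with HUVEC endothelial cells and mesenchymal stem cells as stroma. G-quadruplex stabilizers were combined with targeted agents over half-log dilutions from near the clinical Cmax, or from 10 microM.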
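Further: viability read after seven days of drug exposure.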
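Wherever viability, T/C is given: luminescence signal used as a proxy for viable cells; 100% = DMSO vehicle control wells.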

CCCS(=O)(=O)Nc1ccc(F)c(C(=O)c2c[nH]c3ncc(-c4ccc(Cl)cc4)cc23)c1F
viability, T/C (compound 0.0316 µM): 98.3% and 98.1% and 104% | viability, T/C (compound 0.1 µM): 89.9% and 103% and 86.1% | viability, T/C (compound 0.316 µM): 109% and 84.8% and 76.3% | viability, T/C (compound 1 µM): 75% and 74.6% and 46.8% | viability, T/C (compound 3.16 µM): 71.8% and 76.7% and 53.5% | viability, T/C (compound 10 µM): 46.6% and 34.8% and 20.9% | IC50 (curve of compound): 8650 nM and 6140 nM and 1700 nM

CC(C)(O)C1CCC(Nc2ccc3ncc(-c4cccc(C(F)(F)F)c4)n3n2)CC1 (stereo not given)
viability, T/C (compound 0.0316 µM): 102% and 104% and 81.5% | viability, T/C (compound 0.1 µM): 86.4% and 84.5% and 92.3% | viability, T/C (compound 0.316 µM): 93.7% and 109% and 93.8% | viability, T/C (compound 1 µM): 67.9% and 78.7% and 42.9% | viability, T/C (compound 3.16 µM): 29.4% and 26.8% and 30.6% | viability, T/C (compound 10 µM): 35.9% and 36.4% and 44.3% | IC50 (curve of compound): 1790 nM and 2020 nM and 839 nM

Cc1[nH]c2ccc(F)cc2c1-c1nc2c3cccnc3c3ncccc3c2[nH]1
viability, T/C (compound 1 µM): 86.1% [middle of 9 runs] | viability, T/C (compound 3.16 µM): 38.6% [middle of 9 runs] | IC50 (compound alone, run of 03/18/2024): > 10000 nM and 3070 nM and 3210 nM | IC50 (compound alone, run of 03/26/2024): 2.16 µM [middle of 4 runs]

COc1cccc2c1C(=O)c1c(O)c3c(c(O)c1C2=O)CC(O)(C(=O)CO)CC3OC1CC(N)C(O)C(C)O1 (stereo not given)
viability, T/C (compound 0.0316 µM): 28.9% and 27% and 34.2% | viability, T/C (compound 0.1 µM): 18.4% and 18.1% and 16.8% | viability, T/C (compound 0.316 µM): 15.4% and 13.9% and 14.7% | viability, T/C (compound 1 µM): 7.51% and 9.99% and 11.6% | viability, T/C (compound 3.16 µM): 0.17% and 0.21% and 0.44% | viability, T/C (compound 10 µM): 0.53% and 0.32% and 0.4% | IC50 (curve of compound): < 31.6 nM

From PubChem BioAssay AID2060504 (Molecular Pharmacology Branch, DTP, NCI, 2025)
